Earlier results in patent US11077096B2, “Modified release compositions comprising tacrolimus” (Veloxis Pharmaceuticals A/S, priority 2003, dated 2021).

Experiments:
[1] = not given; remark: listed apart in the source

C=CC[C@@H]1/C=C(\C)C[C@H](C)C[C@H](OC)[C@H]2O[C@@](O)(C(=O)C(=O)N3CCCC[C@H]3C(=O)OC(/C(C)=C/[C@@H]3CC[C@@H](O)[C@H](OC)C3)[C@H](C)[C@@H](O)CC1=O)[C@H](C)C[C@@H]2OC (stereo partly drawn) [Tacrolimus]
Solubility in chloroform (chloroform): very soluble | Solubility in ethanol (ethanol): freely soluble | Solubility in methanol (methanol): very soluble | Solubility in water (water): practically insoluble | bioavailability ([1]; after oral administration): ≤ 20% | mean time-to-peak concentration (tmax) ([1]; oral administration, healthy subjects or kidney or liver transplanted patients): 1 to 2 h
